Test results reported in patent US20120028887A1, “L[…] HIV-1” (priority 2009, published 2012).
Residues, ends and D or L forms follow the SMILES beside them. No end group written: not given here. *: point of attachment. Palmitoyl = CCCCCCCCCCCCCCCC(=O)*; C16 = C16 lipid

What was measured:
[1] = test system: Jurkat E6-1 cells and Jurkat HXBc2 cells expressing HIV-1 HXBc2 Rev and ENV proteins; format: cell-based; conditions: for IC50 (nM) In cell-cell fusion assay: Table 4; for IC50: read-out: IC50 in cell-cell fusion inhibition assay
Description: Jurkat E6-1 cells were from Dr. Arthur Weiss (Weiss A et al. 1984, J. Immunol. 133; 123-8), and Jurkat HXBc2 (4) cells expressing HIV-1 HXBc2 Rev and ENV proteins were from Dr. Joseph Sodroski (Cao, J. et al. 1996, J. Virol. 70; 1340-54). Cells were cultured every 3 to 4 days, and maintained in RPMI-1640 supplemented with the appropriate antibiotics at 37° C. with 5% CO2 in a humidified incubator. For ENV expression, Jurkat HXBc2 (4) cells were transferred to medium without tetracycline three days prior to the experiments. […] Cell-Cell Fusion Inhibition Assay—The protocol utilizing Jurkat E6-1 and Jurkat HXBc2 cells for a cell-cell fusion assay was previously described (Huerta L. et al. 2002, Cytometry, 47; 100-6. In short, Jurkat E6-1 and Jurkat HXBc2 cells were labeled with DiI and DiD lypophilic fluorescent probes, respectively. The two cell populations were co-incubated for 6 h in a ratio of 1:1 in the presence of different concentrations of the inhibitory peptides. Cells that co-incubated without the presence of peptides served as an optimal fusion reference. Unlabeled cells that were handled similarly served as an intrinsic fluorescence control. Cells labeled separately with DiI or DiD were used to compensate for the optimal separation of fluorescent signals. Jurkat HXBc2 cells labeled with DiI were co-incubated with Jurkat HXBc2 cells labeled with DiD for a fusion background that was subtracted from the measurements of the experiment. The following alterations were applied to the original protocol: (i) 5 ul of a 1 mg/ml DiI or DiD solution in dimethylsulfoxide (DMSO) was added to 1 ml of 5×10^6 cells/ml Jurkat E6-1 or Jurkat HXBc2 cells, respectively. (ii) Data from 150,000 events for each sample were collected on FACSort, upgraded to a FACSCalibur cell analyzer (Becton Dickinson), and further analyzed. Fitting of the data points was performed according to the equation derived from Hills' equation:

HIV-1 HXB2 = format: cell-based; conditions: Table 5
Description: For the fitting, we uploaded the X and Y values of the raw data (after subtracting the background) into a nonlinear least squares regression (curve fitter) program that provided the IC50 value (A of the equation), as well as the c value. Virus Infectivity Assay—Fully infectious HIV-1 HXB2 concentrated virus stock was a kind gift of the AIDS Vaccine Program, SAIC. Experiments were done according to a P3 biological safety level. The infectivity of HIV-1 HXB2 was determined using the TZM-bl cell line as a reporter. Cells were added (2×10^4 cells/well) to a 96-well clear-bottomed microtiter plate with 10% serum supplemented Dulbecco's modified eagle medium (DMEM). Plates were incubated at 37° C. for 18-24 hours to allow the cells to adhere. The media was then aspirated from each well and replaced with serum free DMEM containing 40 micrograms/mL DEAE-dextran. […] Luciferase activity was analyzed using the Steady-Glo Luciferase assay kit (Promega, Madison Wis.). […] IC50 Values were calculated from the fitted curve similarly to the cell-cell fusion assay. […] The eight different possible combinations (triple, NBD, DiI, DiD, NBD+DiI, NBD+DiD, DiI+DiD, no label) were defined in the analysis software and the percentage of each one was calculated. The percentage of NBD labeling (peptide) on all cell types in relation to all available labeled cells in the system was calculated. […]

HIV-1LAI = conditions: blocked infection of target cells; cited from earlier work

## SGIVQQLNNQLRAEEANQHLEQLSVWGSKQNQARRLK(δ-NH) [N36 MUTa,d, reference compound]
[1]
  IC50 in cell-cell fusion inhibition assay: inactive
[1]; cell-cell fusion assay, Table 3, N36 mutated peptides
  IC50 nM: Not active

## C16-HQTLSGIDQEQNNLTRLIEAQIHELQ (C16-HQTLSGIDQEQNNLTRLIEAQIHELQ-NH2) [C16-Sh-Mut e,g]
[1]
  IC50 (nM) In cell-cell fusion assay: Not active
HIV-1 HXB2; read-out: IC50 (nM) In virus-cell fusion assay
  IC50: 643 ± 137 nM

## HQTLSGIDQEQNNLTRLIEAQIHELQ [Sh-Mut e,g]
[1]
  IC50 (nM) In cell-cell fusion assay: Not active
HIV-1 HXB2
  IC50 (nM) In virus-cell fusion assay: Not active

## HQTLSGIDQEQNNLTRLIEAQIHELQ-C16 [Sh-Mut e,g-C16]
[1]
  IC50 (nM) In cell-cell fusion assay: Not active

## CCCCCCCCCCCCCCCC(=O)NCCCC[C@H](NC(=O)[C@H](CC(C)C)NC(=O)[C@@H](NC(=O)[C@H](CCCNC(=N)N)NC(=O)[C@H](C)NC(=O)[C@H](CC(C)C)NC(=O)[C@H](CC(C)C)NC(=O)[C@H](CCC(N)=O)NC(=O)[C@H](CCCCN)NC(=O)[C@@H](NC(=O)[C@H](CCCCN)NC(=O)[C@H](Cc1c[nH]c2ccccc12)NC(=O)[C@H](CCC(N)=O)NC(=O)[C@@H](NC(=O)[C@H](CC(C)C)NC(=O)[C@H](CCC(N)=O)NC(=O)[C@H](CC(C)C)NC(=O)[C@H](CCC(=O)O)NC(=O)[C@H](Cc1c[nH]cn1)NC(=O)[C@@H](NC(=O)[C@H](CCC(N)=O)NC(=O)[C@H](C)NC(=O)[C@H](CCC(=O)O)NC(=O)[C@@H](NC(=O)[C@H](CC(C)C)NC(=O)[C@H](CCCNC(=N)N)NC(=O)[C@@H](NC(=O)[C@H](CC(C)C)NC(=O)[C@H](CC(N)=O)NC(=O)[C@H](CC(N)=O)NC(=O)[C@H](CCC(N)=O)NC(=O)[C@H](CCC(=O)O)NC(=O)[C@H](CCC(N)=O)NC(=O)[C@H](CC(=O)O)NC(=O)[C@@H](NC(=O)CNC(=O)[C@@H](N)CO)[C@@H](C)CC)[C@@H](C)O)[C@@H](C)CC)[C@@H](C)CC)[C@@H](C)O)[C@@H](C)CC)[C@@H](C)CC)C(N)=O [N36 MUTe,g-C16] (H-SGIDQEQNNLTRLIEAQIHELQLTQWKIKQLLARILK(Palmitoyl)-NH2)
[1]
  IC50: 8.8 ± 4 nM

## C16-RQLLSGIDQEQNNLTRLIEAQIHELQ (C16-RQLLSGIDQEQNNLTRLIEAQIHELQ-NH2) [C16-Sh-RQLL-Mut e,g]
[1]
  IC50 (nM) In cell-cell fusion assay: Not active

## CCCCCCCCCCCCCCCC(=O)N[C@@H](CO)C(=O)NCC(=O)N[C@H](C(=O)N[C@@H](CC(=O)O)C(=O)N[C@@H](CCC(N)=O)C(=O)N[C@@H](CCC(=O)O)C(=O)N[C@@H](CCC(N)=O)C(=O)N[C@@H](CC(N)=O)C(=O)N[C@@H](CC(N)=O)C(=O)N[C@@H](CC(C)C)C(=O)N[C@H](C(=O)N[C@@H](CCCNC(=N)N)C(=O)N[C@@H](CC(C)C)C(=O)N[C@H](C(=O)N[C@@H](CCC(=O)O)C(=O)N[C@@H](C)C(=O)N[C@@H](CCC(N)=O)C(=O)N[C@H](C(=O)N[C@@H](Cc1c[nH]cn1)C(=O)N[C@@H](CCC(=O)O)C(=O)N[C@@H](CC(C)C)C(=O)N[C@@H](CCC(N)=O)C(=O)N[C@@H](CC(C)C)C(=O)N[C@H](C(=O)N[C@@H](CCC(N)=O)C(=O)N[C@@H](Cc1c[nH]c2ccccc12)C(=O)N[C@@H](CCCCN)C(=O)N[C@H](C(=O)N[C@@H](CCCCN)C(=O)N[C@@H](CCC(N)=O)C(=O)N[C@@H](CC(C)C)C(=O)N[C@@H](CC(C)C)C(=O)N[C@@H](C)C(=O)N[C@@H](CCCNC(=N)N)C(=O)N[C@H](C(=O)N[C@@H](CC(C)C)C(=O)N[C@@H](CCCCN)C(N)=O)[C@@H](C)CC)[C@@H](C)CC)[C@@H](C)O)[C@@H](C)CC)[C@@H](C)CC)[C@@H](C)O)[C@@H](C)CC [C16-N36 MUTe,g] (Palmitoyl-SGIDQEQNNLTRLIEAQIHELQLTQWKIKQLLARILK-NH2)
[1]
  IC50: 162 ± 4 nM

## enfuvirtide
HIV-1LAI
  EC50 against HIV-1LAI: 0.5 ng/mL

## RQLLSGIDQEQNNLTRLIEAQIHELQ [Sh-RQLL-Mut e,g]
[1]
  IC50 (nM) In cell-cell fusion assay: Not active

## CC[C@H](C)[C@H](NC(=O)CNC(=O)[C@@H](N)CO)C(=O)N[C@@H](CC(=O)O)C(=O)N[C@@H](CCC(N)=O)C(=O)N[C@@H](CCC(=O)O)C(=O)N[C@@H](CCC(N)=O)C(=O)N[C@@H](CC(N)=O)C(=O)N[C@@H](CC(N)=O)C(=O)N[C@@H](CC(C)C)C(=O)N[C@H](C(=O)N[C@@H](CCCNC(=N)N)C(=O)N[C@@H](CC(C)C)C(=O)N[C@H](C(=O)N[C@@H](CCC(=O)O)C(=O)N[C@@H](C)C(=O)N[C@@H](CCC(N)=O)C(=O)N[C@H](C(=O)N[C@@H](Cc1c[nH]cn1)C(=O)N[C@@H](CCC(=O)O)C(=O)N[C@@H](CC(C)C)C(=O)N[C@@H](CCC(N)=O)C(=O)N[C@@H](CC(C)C)C(=O)N[C@H](C(=O)N[C@@H](CCC(N)=O)C(=O)N[C@@H](Cc1c[nH]c2ccccc12)C(=O)N[C@@H](CCCCN)C(=O)N[C@H](C(=O)N[C@@H](CCCCN)C(=O)N[C@@H](CCC(N)=O)C(=O)N[C@@H](CC(C)C)C(=O)N[C@@H](CC(C)C)C(=O)N[C@@H](C)C(=O)N[C@@H](CCCNC(=N)N)C(=O)N[C@H](C(=O)N[C@@H](CC(C)C)C(=O)N[C@@H](CCCCN)C(N)=O)[C@@H](C)CC)[C@@H](C)CC)[C@@H](C)O)[C@@H](C)CC)[C@@H](C)CC)[C@@H](C)O [N36 MUTe,g, reference compound] (H-SGIDQEQNNLTRLIEAQIHELQLTQWKIKQLLARILK-NH2; N-terminus assumed)
[1]
  IC50: 936 ± 36 nM

## CCCCCCCCCCCCCCCC(=O)NCCCC[C@H](NC(=O)[C@H](CCC(N)=O)NC(=O)[C@H](CC(C)C)NC(=O)[C@H](CCC(=O)O)NC(=O)[C@H](Cc1c[nH]cn1)NC(=O)[C@@H](NC(=O)[C@H](CCC(N)=O)NC(=O)[C@H](C)NC(=O)[C@H](CCC(=O)O)NC(=O)[C@@H](NC(=O)[C@H](CC(C)C)NC(=O)[C@H](CCCNC(=N)N)NC(=O)[C@@H](NC(=O)[C@H](CC(C)C)NC(=O)[C@H](CC(N)=O)NC(=O)[C@H](CC(N)=O)NC(=O)[C@H](CCC(N)=O)NC(=O)[C@H](CCC(=O)O)NC(=O)[C@H](CCC(N)=O)NC(=O)[C@H](CC(=O)O)NC(=O)[C@@H](NC(=O)CNC(=O)[C@H](CO)NC(=O)[C@H](CC(C)C)NC(=O)[C@H](CC(C)C)NC(=O)[C@H](CCC(N)=O)NC(=O)[C@@H](N)CCCNC(=N)N)[C@@H](C)CC)[C@@H](C)O)[C@@H](C)CC)[C@@H](C)CC)C(N)=O [Sh-RQLL-Mut e,g-C16] (H-RQLLSGIDQEQNNLTRLIEAQIHELQK(Palmitoyl)-NH2; N-terminus assumed)
[1]
  IC50 (nM) In cell-cell fusion assay: Not active
